The values below come from publication PMC12362587, “Untargeted Diversity-Oriented Synthesis for the Discovery of New Antitumor Agents: An Integrated Approach of Inverse Virtual Screening, Bioinformatics, and Omics for Target Deconvolution” (Journal of Medicinal Chemistry, 2025).

For test [1], the target named is T1, A1 Human Adenosine GPCR (Homo sapiens, UniProt P30542).
T1 construct: Eurofins (contract assay)
T1 sequence (P30542 1-326): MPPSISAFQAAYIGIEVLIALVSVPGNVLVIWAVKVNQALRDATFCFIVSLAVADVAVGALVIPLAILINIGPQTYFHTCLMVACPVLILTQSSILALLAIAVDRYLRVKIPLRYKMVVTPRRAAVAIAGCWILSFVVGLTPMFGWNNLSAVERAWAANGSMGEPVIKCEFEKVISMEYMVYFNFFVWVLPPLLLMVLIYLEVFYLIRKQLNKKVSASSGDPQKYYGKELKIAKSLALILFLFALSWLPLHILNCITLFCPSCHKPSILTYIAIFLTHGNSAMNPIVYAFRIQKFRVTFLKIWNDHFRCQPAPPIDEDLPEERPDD
The test can be described thus: Binding Antagonist Radioligand LeadHunter Assay. Particulars: Eurofins, read-out: EC50 or IC50, A1 Human Adenosine GPCR, antagonist radioligand. The text has this: For displacement assays on G-protein coupled receptor 55 (GPR55), Vasopressin V2 receptor (V2R), Adenosine A1 receptor (A1AR), Fibroblast growth factor receptor 1 (FGFR1), Vascular endothelial growth factor receptor 2 (VEGFR2), Platelet-derived growth factor receptor beta (PDGFRB), Vascular endothelial growth factor receptor 1 (VEGFR1), Thromboxane Synthase (TXS) and Phosphodiesterase 10A (PDE10A), we commissioned the Eurofins company which employed its specific experimental methods, accessible at the link: https://www.eurofins.com/.

For test [2], the target named is T2, serine/threonine-protein kinase B-raf (V600E) (Homo sapiens, UniProt P15056, V600E).
T2 construct: purchased BPS Bioscience
T2 sequence (P15056 whole entry V600E): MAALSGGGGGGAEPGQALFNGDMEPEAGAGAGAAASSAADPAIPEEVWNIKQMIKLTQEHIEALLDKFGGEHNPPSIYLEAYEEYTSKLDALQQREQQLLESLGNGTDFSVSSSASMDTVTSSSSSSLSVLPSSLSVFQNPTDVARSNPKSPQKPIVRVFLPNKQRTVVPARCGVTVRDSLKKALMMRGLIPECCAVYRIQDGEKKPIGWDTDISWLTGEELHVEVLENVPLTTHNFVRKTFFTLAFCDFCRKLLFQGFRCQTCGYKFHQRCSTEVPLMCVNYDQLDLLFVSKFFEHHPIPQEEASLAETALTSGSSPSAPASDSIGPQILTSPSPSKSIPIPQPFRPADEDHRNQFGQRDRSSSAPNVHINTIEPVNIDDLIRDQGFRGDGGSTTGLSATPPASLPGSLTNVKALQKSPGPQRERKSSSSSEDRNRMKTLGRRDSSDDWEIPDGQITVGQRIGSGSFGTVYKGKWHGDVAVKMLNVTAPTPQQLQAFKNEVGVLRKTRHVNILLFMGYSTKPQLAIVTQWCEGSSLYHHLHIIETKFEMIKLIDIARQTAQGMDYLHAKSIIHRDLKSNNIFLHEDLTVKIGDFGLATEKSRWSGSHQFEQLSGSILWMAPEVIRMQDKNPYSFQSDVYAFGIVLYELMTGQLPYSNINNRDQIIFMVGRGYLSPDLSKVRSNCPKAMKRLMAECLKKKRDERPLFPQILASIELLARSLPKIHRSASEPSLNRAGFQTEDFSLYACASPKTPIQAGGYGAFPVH
The test can be described thus: B-Raf kinase assay (V600E; BPS Bioscience). Type of test: biochemical. Particulars: top concentration 30 μM, read-out: EC50 or IC50, serine/threonine-protein kinase B-raf. As to the method:
The assay was performed in a volume of 50 μL in a 96-well white plate. The B-Raf kinase assay (V600E; BPS Bioscience, USA) was designed to measure B-Raf kinase activity by the use of Kinase-Glo MAX (Promega, USA), which detects ATP residual following the kinase reaction. For activity measurement, the kinase (final concentration, 2 ng per reaction), Raf substrate and ATP (final concentration, 500 μM), and compounds were incubated for 45 min at 30 °C. The compounds were added at different concentrations in the reaction buffer, starting from a final concentration of 30 μM. Buffer with the same amount of DMSO (1%) was used as a negative control. After the incubation time, Kinase-Glo MAX detection reagent was added for 15 min at room temperature. The generated luminescent signal was read in end point mode using a PerkinElmer AlphaScreen multimodal plate reader (PerkinElmer, Waltham, MA, USA). Experiments were performed in triplicate. IC50 values were calculated with GraphPad Prism 8.0 software by nonlinear dose–response inhibition regression.

Test [3] concerns the target human recombinant CB1R (Homo sapiens, UniProt P21554). The test can be described thus: Competition binding assay, displacement of [3H]-CP-55,940. The following applies: displacement of [3H]-CP-55,940, HEK-293 membranes; read-out: EC50 or IC50, cannabinoid receptor 1. The protocol: Binding assays at equilibrium were conducted as described in Di Micco et al., 2024. […]. All compounds were evaluated following the manufacturer’s protocol (PerkinElmer distributed by Revvity, Italy). […] The K i values were calculated using the Cheng-Prusoff equation, based on the IC50 values obtained through GraphPad PRISM software (version 10.2.2). The results are expressed as K i (μM), represented as mean ± SEM, and reflect the average of three independent experiments performed in duplicate.
A general note: In a radioligand displacement assay an active substance lowers the binding of a labelled ligand.

The target of test [4] is T3, Cathepsin K (Homo sapiens, UniProt P43235).
T3 construct: purchased BPS Bioscience
T3 sequence (P43235 115-329): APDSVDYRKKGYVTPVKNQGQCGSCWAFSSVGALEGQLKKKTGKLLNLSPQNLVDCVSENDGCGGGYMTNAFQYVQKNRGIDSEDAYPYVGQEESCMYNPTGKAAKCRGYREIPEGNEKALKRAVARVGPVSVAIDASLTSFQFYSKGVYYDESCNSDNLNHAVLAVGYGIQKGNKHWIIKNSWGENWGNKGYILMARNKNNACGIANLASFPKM
The test can be described thus: Cathepsin K Inhibitor Screening Assay Kit (BPS Bioscience). Type of test: biochemical. The following applies: top concentration 30 μM; read-out: EC50 or IC50, Cathepsin K. The protocol:
The assay was performed in a volume of 50 μL in a 96-well black plate. The Cathepsin K inhibitor assay (BPS Bioscience, USA) was designed to measure protease activity by the presence of an internally quenched fluorogenic substrate. Upon cleavage by Cathepsin K (CTSK), the fluorescence of the substrate increases dramatically. For the activity measurement, protease (final concentration, 0.5 ng per reaction), the Fluorogenic Cathepsin K Substrate (final concentration, 70 μM), E-64 (known inhibitor, as positive control) or compounds were incubated for 1 h at room temperature. The compounds were added at different concentrations in the reaction buffer, starting with a final concentration of 30 μM. Buffer with the same amount of DMSO (1%) was used as a negative control. After the incubation time, the fluorescence signals (excitation/emission, 360 nm/460 nm) were read with a PerkinElmer EnSpire multimode plate reader (PerkinElmer, Waltham, MA, USA). Experiments were performed in triplicate. IC50 values were calculated with GraphPad Prism 8.0 software by nonlinear dose–response inhibition regression.

The target of test [5] is T4, Poly [ADP-ribose] polymerase tankyrase-1 (Homo sapiens, UniProt O95271).
T4 construct: (TNKS1) enzyme (amino acids 1001–1323; final concentration, 1.5 ng per reaction); purchased BPS Bioscience
T4 sequence (O95271 1001-1323): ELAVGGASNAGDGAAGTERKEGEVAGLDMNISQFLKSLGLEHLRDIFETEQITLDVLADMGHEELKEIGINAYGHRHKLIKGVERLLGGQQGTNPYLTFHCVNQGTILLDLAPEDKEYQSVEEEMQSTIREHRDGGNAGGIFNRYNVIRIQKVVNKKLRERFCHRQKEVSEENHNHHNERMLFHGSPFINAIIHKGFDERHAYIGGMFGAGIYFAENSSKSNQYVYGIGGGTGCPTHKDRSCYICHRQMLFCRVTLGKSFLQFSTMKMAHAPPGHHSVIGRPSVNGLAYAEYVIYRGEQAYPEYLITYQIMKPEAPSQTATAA
The test can be described thus: TNKS1 (PARP5A) Colorimetric Assay Kit (BPS Bioscience). The following applies: top concentration 30 μM; read-out: EC50 or IC50, Poly [ADP-ribose] polymerase tankyrase-1. Type of test: biochemical. The protocol:
The assay was performed in a volume of 50 μL in a 96-well transparent plate. The TNKS1 assay kit (PARP5A; BPS Bioscience, USA) was performed by first coating the 96-well plate with histone proteins, then left at 4 °C overnight. Next, Poly [ADP-ribose] polymerase tankyrase-1 (TNKS1) enzyme (amino acids 1001–1323; final concentration, 1.5 ng per reaction), a mixture of biotinylated NAD^+ (PARP substrate) and compounds were incubated for 1 h at room temperature. The compounds were added at different concentrations in the reaction buffer, starting from a final concentration of 30 μM. Buffer with the same amount of DMSO (1%) was used as a negative control. After incubation, the plate was treated with streptavidin-HRP followed by the addition of the colorimetric HRP substrate generating a colored solution. The generated signal was read at an absorbance of 450 nm using a microplate reader with UV/vis spectrophotometer (Multiskan Go, Thermo Fisher Scientific, Waltham, MA, USA). Experiments were performed in triplicate. IC50 values were calculated with GraphPad Prism 8.0 software by nonlinear dose–response inhibition regression.

Each structure is given as a SMILES string.

Sequence of human recombinant CB1R (P21554 whole entry): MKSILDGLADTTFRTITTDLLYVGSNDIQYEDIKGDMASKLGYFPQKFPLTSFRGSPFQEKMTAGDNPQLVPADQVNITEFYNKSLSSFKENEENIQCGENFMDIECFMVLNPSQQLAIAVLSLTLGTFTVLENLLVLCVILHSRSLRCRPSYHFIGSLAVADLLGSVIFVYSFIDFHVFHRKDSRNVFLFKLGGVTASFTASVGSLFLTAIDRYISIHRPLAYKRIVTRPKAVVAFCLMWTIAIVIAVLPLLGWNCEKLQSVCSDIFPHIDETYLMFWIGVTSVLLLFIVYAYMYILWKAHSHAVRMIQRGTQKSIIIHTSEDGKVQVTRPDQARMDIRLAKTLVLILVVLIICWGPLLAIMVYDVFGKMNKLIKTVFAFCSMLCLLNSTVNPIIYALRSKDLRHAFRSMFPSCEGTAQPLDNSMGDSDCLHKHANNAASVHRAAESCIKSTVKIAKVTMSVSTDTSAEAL

For the compound `CC(C)C[C@H]1C(=O)N(Cc2ccc(C(F)(F)F)cc2)c2ccccc2C(=O)N1Cc1ccc(C(F)(F)F)cc1` [Compound 31, (S)-3-Isobutyl-1,4-bis(4-(trifluoromethyl)benzyl)-3,4-dihydro-1H-benzo[e][1,4]diazepine-2,5-dione], the IC50 in test [1] is at least 30 µM; in test [2] it was at least 30 µM; in test [3], above 30 µM; in test [4], above 30 µM; in test [5], above 30 µM.
Consider `CC(C)C[C@@H](C(=O)OCc1ccccc1)N1Cc2ccccc2NC1=O` [Compound 63, Benzyl (S)-4-Methyl-2-(2-oxo-1,4-dihydroquinazolin-3(2H)-yl)pentanoate], for which the IC50 is at least 30 µM in test [1]; at least 30 µM in test [2]; above 30 µM in test [3]; above 30 µM in test [4]; above 30 µM in test [5].
